# Measurements taken from US12018058B2, “Compositions and methods for diagnosing and/or treating kidney injury” (Boston Medical Center Corporation, priority 2018, dated 2024).
# Square brackets hold non-standard residues; d marks the D form. Peptide text beside a SMILES is read from it. βAla = NCCC(=O)O
# How the values were obtained:
# [1] = test system: mitochondrial Bax accumulation; assay: NPM and Bax accumulation in mitochondria isolated from PTEC after ischemic stress; format: cell-based; conditions: mitochondria isolated from human PTEC after ischemic stress
# Source text: (§1) NPM is a relevant therapeutic target in human AKI. Primary human proximal tubule epithelial cells (PTEC) derived from cadaveric kidneys were subjected to ischemic stress (transient ATP depletion) in the presence of specific NPM siRNA or non-sense siRNA. […] Thus, manipulating NPM is an effective maneuver. […] Small peptides of 30 amino acids or less are sufficiently specific to minimize off target effects and also reduce the risk of eliciting an antibody response that causes tachyphylaxis. Peptides were commercially synthesized and fused to a nuclear localizing sequence (this NLS has no functional relationship to the “NPM NLS” that regulates NPM translocation). The NLS-CPP markedly increases renal accumulation of small peptides8 as well as in the proximal tubule. […] To determine its effect on NPM-Bax complex formation, active Bax was immunoprecipitated from PTEC rendered ischemic with an antibody directed against the 6A7 epitope. The precipitates were subjected to immunoblot analysis using an anti-NPM antibody. […] NPM and Bax accumulation was measured in mitochondria isolated from human PTEC after ischemic stress. […] This is likely due to the prolonged half-life (about 80 hr) of the peptide in vitro and in vivo due to the presence of an AC modification slows degradation.
# [2] = Peptide half-life in vitro and in vivo
# [3] = target: T1, NPM-Bax complex (Mus musculus, UniProt Q61937); assay: NPM-Bax interaction, Bax immunoprecipitates from renal cortical homogenates after ischemia; format: in vivo, murine; conditions: for Bax-NPM interaction in postischemic renal homogenates: peptide injected 3 hours after bilateral renal ischemia, FIG. 9B
# T1 construct: from tissue; host or cells: renal cortical homogenate of C57BL/6J mice after bilateral renal pedicle clamping
# Experimental: (§2) Similar amounts of Bax were detected in each lane, and input protein amounts for each sample were identical. IB, immunoblot; IP, immunoprecipitation.
# (§3) Cell, tissue, and urinary proteins were harvested using PD buffer containing 40 mM Tris-HCl, pH 8.0, 500 mM NaCl, 0.1% Nonidet P-40, 6 mM EGTA, and a protease inhibitor cocktail (Set I; Calbiochem, San Diego, CA). NPM was immunoprecipitated overnight with NPM antibodies (catalog no. B0556; Sigma-Aldrich) in the presence of protein A/G-agarose beads at 4° C. NPM accumulation was measured in cytosolic samples extracted with low-dose digitonin ([…]).13 Cytosolic proteins were extracted from renal cortical tissue samples using an extraction kit (Biochain Institute, Newark, CA). Briefly, 50-100 mg of kidney cortex tissue was minced on ice and spin washed with 1 ml ice-cold wash buffer before adding […] of buffer C. The mixture was rotated at 4° C. for 20 minutes and then centrifuged at 18,0003 g at 4° C. for 20 minutes before being harvested. Protein levels were measured with the bicinchoninic acid assay (Thermo Scientific, Rockford, IL).
# as §1
# [4] = target: T2, NPM-Bax complex (Homo sapiens, UniProt P06748); assay: NPM-Bax interaction, active Bax immunoprecipitates from PTEC lysates after ATP depletion; format: cell-based; conditions: for Bax-NPM interaction in renal epithelial cells in vitro: PTEC, 60 min ATP depletion plus 30 min recovery, FIG. 9A
# T2 construct: endogenous in cells; host or cells: primary human proximal tubule epithelial cells (PTEC), ATP-depleted
# Experimental: as §2, §3
# [5] = listed as NPM-Bax blocking peptide (Peptide #1)
# T2 sequence (P06748 whole entry, one chain of several): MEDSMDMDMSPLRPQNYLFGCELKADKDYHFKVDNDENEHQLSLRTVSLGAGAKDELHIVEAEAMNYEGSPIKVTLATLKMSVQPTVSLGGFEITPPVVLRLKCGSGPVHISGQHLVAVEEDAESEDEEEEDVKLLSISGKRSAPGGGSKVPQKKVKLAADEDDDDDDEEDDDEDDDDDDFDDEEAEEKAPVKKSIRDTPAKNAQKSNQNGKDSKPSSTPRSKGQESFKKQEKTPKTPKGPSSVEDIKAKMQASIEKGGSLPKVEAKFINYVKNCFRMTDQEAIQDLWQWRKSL
# T1 sequence (Q61937 whole entry, one chain of several): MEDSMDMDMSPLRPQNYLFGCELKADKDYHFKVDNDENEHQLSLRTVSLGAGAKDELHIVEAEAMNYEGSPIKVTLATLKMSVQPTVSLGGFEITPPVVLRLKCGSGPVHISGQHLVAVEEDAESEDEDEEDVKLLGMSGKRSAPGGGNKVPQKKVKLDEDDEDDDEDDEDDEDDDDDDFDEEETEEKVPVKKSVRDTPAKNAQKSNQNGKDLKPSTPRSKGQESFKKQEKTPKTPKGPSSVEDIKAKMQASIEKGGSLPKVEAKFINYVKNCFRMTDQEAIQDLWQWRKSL
smiles,measurement,setting,value
CC[C@H](C)[C@H](NC(=O)[C@@H](NC(=O)[C@H](CC(C)C)NC(=O)[C@H](CO)NC(=O)[C@H](C)NC(=O)[C@@H](NC(=O)[C@H](CC(C)C)NC(=O)[C@@H](NC(=O)CNC(=O)[C@H](C)NC(=O)[C@@H](NC(=O)[C@H](Cc1ccccc1)NC(=O)[C@@H](NC(=O)[C@@H](NC(=O)[C@@H](NC(=O)[C@@H](NC(=O)CCNC(=O)[C@@H](NC(=O)[C@H](CCCCN)NC(=O)[C@H](CCCNC(=N)N)NC(=O)[C@H](CCCCN)NC(=O)[C@H](CCCCN)NC(=O)[C@H](CCCCN)NC(C)=O)C(C)C)[C@@H](C)O)C(C)C)[C@@H](C)O)[C@@H](C)CC)C(C)C)C(C)C)[C@@H](C)O)[C@@H](C)O)C(=O)N[C@@H](Cc1c[nH]c2ccccc12)C(=O)N[C@@H](CCCCN)C(=O)N[C@@H](CCCCN)C(=O)N[C@@H](CCSC)C(=O)NCC(=O)O [Peptide #1] (Ac-KKKRKV[βAla]TVTIFVAGVLTASLTIWKKMG-OH),Mitochondrial Bax and NPM accumulation,[1],decreased mitochondrial Bax accumulation to a greater extent than it reduced NPM accumulation
same,half-life,[2],~3.33 days
same,Decrease of NPM-Bax complex formation in vivo (renal cortical homogenates),[3]; after ischemia by pedicle clamping,about 50%
same,Bax-NPM interaction in postischemic renal homogenates,[3],markedly decreases
same,Bax-NPM interaction in postischemic renal homogenates,[3]; listed as Blocking peptide,markedly reduced
same,Bax-NPM interaction in postischemic renal homogenates,[3]; [5],decreases
same,Decrease of NPM-Bax complex formation in vitro,[4]; FIG. 9,about 50%
same,Bax-NPM interaction in renal epithelial cells in vitro,[4],markedly decreases
same,Bax-NPM interaction in renal epithelial cells in vitro,[4]; listed as Blocking peptide,markedly reduced
same,Bax-NPM interaction in renal epithelial cells in vitro,[4]; [5],decreases
